Values of other authors as cited in PMC6225257 (Molecules : A Journal of Synthetic Chemistry and Natural …, 2018).

Conditions: patients with chronic kidney disease; ref [18]
Source text: Here, we conjugated P88 to a paramagnetic MRI CA comprising a chelator (1,4,7,10-tetraazacyclododecane-1,4,7,10-tetraacetic acid, DOTA) complexed with GdCl3 to solve eventual limitations of the superparamagnetic CAs and pave the way towards future clinical implementation. Gadolinium (Gd)-based CAs (GBCA) are routinely employed in radiology as diagnostic agents.

effect on renal function: does not affect renal function
Substance: Gd-DOTA
